Assays:
Type in all cases: physicochemical, human
[1] = LC/MS of blood plasma sample: time from blood collection to centrifugation (Table D); settings: for Increase or decrease: detection intensity, after 12 hours vs 15 minutes; for Increase or decrease / Rate of increase or decrease: blood collection to centrifugation; for Rate of increase or decrease (second value, decrease) / Rate of increase or decrease (first value, increase): different from individual to individual, relative to 1 at 15 minutes, collection to centrifugation; for Rate of increase or decrease (second value, decrease): individuals with decrease; for Rate of increase or decrease (second value, decrease) / Rate of increase or decrease (first value, increase) / Rate of increase or decrease: after 12 hours; for Rate of increase or decrease (first value, increase): individuals with increase; for Rate of increase or decrease: detection intensity relative to 1 at 15 minutes
Procedure: (§1) At room temperature, 5 mL of blood from a healthy subject was taken into a blood-collecting vessel containing EDTA, and the blood-collecting vessel was inverted for mixing, then cooled, and allowed to stand at 4° C. Here, in order to investigate how the detection intensity of molecules contained in the sample was affected in a case where the time to cooling was set to 5 minutes or more as compared to that in a case where the time to cooling was set to 1 minute or less, preparations were performed under both the former condition and the latter condition. After standing, the blood sample was subjected to centrifugation under a condition of 4° C., 3000 rpm, and 15 minutes. […] After centrifugation, the blood-collecting vessel was left to stand at room temperature for 30 minutes, and the blood plasma was isolated during this 30 minutes. The obtained blood plasma sample was frozen and stored. Here, in order to investigate how the detection intensity of molecules contained in the sample was affected in cases where freezing and thawing was performed 4 times, 6 times, and 10 times after freezing as compared to that in a case where freezing and thawing was performed 2 times after freezing, freezing and thawing was performed under the respective conditions of 2, 4, 6, and 10 times.
(§2) Frozen blood plasma samples and serum samples were subjected to GC/MS or LC/MS. In GC/MS, the blood plasma samples and serum samples were subjected to methoxymation and trimethylsilylation and then introduced to GC-MS.
(§3) Analysis column: Discovery HS F5-3 (inner diameter of 2.1 mm, length of 150 mm, film thickness of 3 μm) (Sigma-Aldrich)
(§4) Column temperature: 40° C.
(§5) (A) 0.1% formic acid (dissolved in water)
(§6) (B) 0.1% formic acid (dissolved in acetonitrile)
(§7) Flow velocity: 0.25 mL/min
(§8) Ionization method: electrospray
(§9) Temperature: • Desolvation Line (DL) temperature: 250° C. • Heat block temperature: 400° C. • Interface temperature: 300° C.
(§10) Gas flow rate: • Nebulizer gas flow rate: 3.0 L/min • Drying gas flow rate: 10.0 L/min • Heating gas flow rate: 10.0 L/min
(§11) Mode: multiple reaction monitoring (MRM)
The rate of increase or decrease in Table D is the value of detection intensity relative to 1 that is the detection intensity in a case where the time from blood collection to centrifugation is set to 15 minutes.

[2] = LC/MS of blood plasma sample: number of times of freezing and thawing (Table F); settings: for Rate of increase or decrease: detection intensity relative to 1 at 2 times; for Increase or decrease: detection intensity
Procedure: as §1, §2, §3, §4, §5, §6, §7, §8, §9, §10, §11
The rate of increase or decrease in Table F is the value of detection intensity relative to 1 that is the detection intensity in a case where the number of times of freezing and thawing is set to 2 times.

[3] = GC/MS of serum sample: time from blood collection to centrifugation (Table G); settings: blood collection to centrifugation
In short: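 Blood was held for varying times before centrifugation (room temperature, 3500 rpm, 5 min); serum was frozen, then methoxymated and trimethylsilylated for GC/MS with electron ionization in MRM mode. Values are detection intensities relative to the 15-minute collection-to-centrifugation condition, set as 1.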

[4] = GC/MS of serum sample: time from centrifugation to isolation (Table H); parameters: key to Rate of increase or decrease / Rate of increase or decrease (first value, increase): detection intensity relative to 1 at 30 min centrifugation-to-isolation
In short: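 Blood was centrifuged at room temperature, 3500 rpm, 5 min, and the vessel left at room temperature for 30 min, 1 h or 6 h before serum isolation. Serum was methoxymated, trimethylsilylated and analysed by GC/MS with electron ionization in MRM mode; intensities expressed relative to the 30-min condition (=1).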

[5] = GC/MS of serum sample: number of times of freezing and thawing (Table I); parameters: key to Rate of increase or decrease / Rate of increase or decrease (first value, increase): detection intensity relative to 2 freeze-thaw cycles = 1; settings: serum, GC/MS
In short: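 Serum was isolated after centrifugation at room temperature (3500 rpm, 5 min), frozen, and put through 2, 4, 6 or 10 freeze–thaw cycles. Samples were methoxymated and trimethylsilylated, then run by electron-ionization GC/MS in MRM mode on a BPX5 column (60 to 330 °C). Detection intensity is given relative to the 2-cycle sample, set as 1.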

[6] = LC/MS of serum sample: number of times of freezing and thawing (Table M); parameters: key to Rate of increase or decrease: detection intensity relative to 1 at 2 freeze-thaw cycles; settings: for Number of times when compound is affected / Increase or decrease: serum sample, LC/MS; for Number of times when compound is affected: detection intensity changed by 30% or more vs 2 times of freezing and thawing; for Increase or decrease: detection intensity vs 2 times of freezing and thawing
Procedure: (§12) After standing, the blood sample was subjected to centrifugation under a condition of room temperature, 3500 rpm, and 5 minutes. […] After centrifugation, the blood-collecting vessel was left to stand at room temperature, and the serum was isolated during this time. Here, in order to investigate how the detection intensity of molecules contained in the sample was affected in cases where the time during which the blood-collecting vessel was left at room temperature was set to 1 hour and 6 hours as compared to that in a case where the time was set to 30 minutes, preparations were performed under the respective conditions of 30 minutes, 1 hour, and 6 hours. The obtained serum sample was frozen and stored. Here, in order to investigate how the detection intensity of molecules contained in the sample was affected in cases where freezing and thawing was performed 4 times, 6 times, and 10 times after freezing as compared to that in a case where freezing and thawing was performed 2 times after freezing, freezing and thawing was performed under the respective conditions of 2, 4, 6, and 10 times.
as §2, §3, §4, §5, §6, §7, §8, §9, §10, §11
The rate of increase or decrease in Table M is the value of detection intensity relative to 1 that is the detection intensity in a case where the number of times of freezing and thawing is set to 2 times.

[7] = LC/MS of serum sample: time from blood collection to centrifugation (Table J); settings: for Rate of increase or decrease: detection intensity relative to 1 at 15 minutes; for Increase or decrease / Time when compound is affected: serum sample, LC/MS; for Increase or decrease: detection intensity vs 15 minutes from blood collection to centrifugation; for Time when compound is affected: time from blood collection to centrifugation, detection intensity changed by 30% or more vs 15 minutes
Procedure: as §12, §2, §3, §4, §5, §6, §7, §8, §9, §10, §11
The rate of increase or decrease in Table J is the value of detection intensity relative to 1 that is the detection intensity in a case where the time from blood collection to centrifugation is set to 15 minutes.

[8] = freezing and thawing 10 times vs 2 times
[9] = 6 times of freezing and thawing, detection intensity relative to 1 at 2 times
[10] = freezing and thawing 6 times vs 2 times
[11] = freezing and thawing 4 times vs 2 times
[12] = 4 times of freezing and thawing, detection intensity relative to 1 at 2 times

| Increase or decrease [1] | Rate of increase or decrease (second value, decrease) [1] | Rate of increase or decrease (first value, increase) [1] | Rate of increase or decrease ([2]; freezing and thawing 10 times) | Increase or decrease [2, 8] | Rate of increase or decrease [6, 9] | Number of times when compound is affected [6] [times] | Increase or decrease [6] | SMILES | also measured |
| --- | --- | --- | --- | --- | --- | --- | --- | --- | --- |
| Different from individual | 0.64 | 1.41 | 1.34 | Increase |  | 6 | Different from individual | C[C@H](N)C(=O)O [Alanine] | Rate of increase or decrease ([6]; 6 times of freezing and thawing, relative to 1 at 2 times, different from individual to individual, second value (decrease)): 0.63 |
| Different from individual | 0.64 | 1.57 |  |  | 0.67 | 6 | Decrease | C[N+](C)(C)CC(O)CC(=O)[O-] (centres unmarked) [Carnitine] | Rate of increase or decrease ([2]; freezing and thawing 6 times): 1.30; Increase or decrease [2, 10]: Increase |
| Different from individual | 0.66 | 1.67 |  |  |  | 4 | Decrease | CN(CC(=O)O)C(=N)N [Creatine] | Rate of increase or decrease ([2]; freezing and thawing 4 times): 1.39; Increase or decrease [2, 11]: Increase; Rate of increase or decrease [6, 12]: 0.63 |
| Increase |  |  |  |  |  |  |  | N[C@@H](CCSC[C@H](N)C(=O)O)C(=O)O [Cystathionine] | Rate of increase or decrease [1]: 1.44; Rate of increase or decrease ([2]; freezing and thawing 4 times): 1.52; Increase or decrease [2, 11]: Increase |
|  |  |  | 1.34 | Increase |  |  |  | NC(=O)CC[C@H](N)C(=O)O [Glutamine] |  |
|  |  |  |  |  | 0.66 | 6 | Decrease | N[C@@H](CO)C(=O)O [Serine, serine] | Rate of increase or decrease ([7]; after 6 hours from blood collection to centrifugation): 1.44; Increase or decrease [7]: Increase; Time when compound is affected [7]: After 6 hours |
| Different from individual | 0.68 | 1.78 | 1.31 | Increase | 0.55 | 6 | Decrease | CN=C(NC)NCCC[C@H](N)C(=O)O [Symmetric dimethylarginine] |  |

Further lines, the compound ahead of its results:

| SMILES | Increase or decrease [1] | Rate of increase or decrease (second value, decrease) [1] | Rate of increase or decrease (first value, increase) [1] | Rate of increase or decrease ([2]; freezing and thawing 10 times) | Increase or decrease [2, 8] | Rate of increase or decrease [6, 9] | Number of times when compound is affected [6] [times] | Increase or decrease [6] | also measured |
| --- | --- | --- | --- | --- | --- | --- | --- | --- | --- |
| O=C(O)[C@@H]1CC(O)CN1 (some centres unmarked) [4-Hydroxyproline] | Different from individual | 0.69 | 1.33 | 1.34 | Increase | 0.66 | 6 | Decrease | Rate of increase or decrease ([3]; detection intensity relative to 1 at 15 minutes, after 12 hours): 1.44; Increase or decrease ([3]; detection intensity, after 12 hours vs 15 minutes): Increase; Rate of increase or decrease ([4]; detection intensity relative to 1 at 30 minutes, after 1 hour): 1.33; Increase or decrease ([4]; detection intensity, after 1 hour vs 30 minutes): Increase; Rate of increase or decrease ([5]; detection intensity relative to 1 at 2 times, freezing and thawing 4 times): 1.40; Increase or decrease ([5]; detection intensity, freezing and thawing 4 times vs 2 times): Increase |
| NC(=O)C[C@H](N)C(=O)O [Asparagine] |  |  |  | 1.38 | Increase | 0.66 | 6 | Decrease | Rate of increase or decrease ([7]; after 12 hours from blood collection to centrifugation): 1.40; Increase or decrease [7]: Increase; Time when compound is affected [7]: After 12 hours |
| NC(=O)NCCC[C@H](N)C(=O)O [Citrulline] | Decrease |  |  | 1.33 | Increase | 0.62 | 6 | Decrease | Rate of increase or decrease [1]: 0.68 |
| N[C@@H](CCS)C(=O)O [Homocysteine] |  |  |  | 1.37 | Increase | 1.30 | 6 | Decrease |  |
| Nc1ccccc1C(=O)CC(N)C(=O)O (centres unmarked) [Kynurenine] | Different from individual | 0.66 | 1.85 |  |  |  | 4 | Decrease | Rate of increase or decrease ([2]; freezing and thawing 6 times): 1.37; Increase or decrease [2, 10]: Increase; Rate of increase or decrease [6, 12]: 0.67 |

Reference: patent publication US20220146526A1, “METHOD FOR EVALUATING SAMPLE, ANALYSIS METHOD, METHOD FOR DETECTING DEGRADED SAMPLE, MARKER FOR DETECTING DEGRADED BLOOD PLASMA SAMPLE, AND MARKER FOR DETECTING DEGRADED SERUM SAMPLE” (SHIMADZU CORPORATION, priority 2019, published 2022)
